In patent US10457637B2, “Benzenesulfonamide derivatives as inverse agonists of retinoid-related orphan receptor gamma (RORγ(T))” (GALDERMA RESEARCH & DEVELOPMENT, priority 2014, dated 2019):

Columns and labels:
Type in all cases: cell-based
[1] = target: hERG (Homo sapiens (Human), UniProt Q12809); assay: hERG test, patch clamp on CHO-K1 cells; conditions: CHO-K1 cells transfected with the hERG gene
Source text: In the table below, the median inhibitory concentrations IC50 for the compounds belonging to formula (I) according to the invention have been given in accordance with the hERG test.
The hERG test makes it possible to study a gene which codes for a protein required for the functioning of heart tissue potassium channels. The patch clamp method on CHO-K1 cells (cells transfected with the hERG gene which has K+ ion activity on the membranes) is used for in vitro prediction of the blocking of hERG (human Ether-a-go-go Related).
The extracellular solution (control) is applied first. The cells (Chinese hamster ovarian cells expressing the Human Ether-a-go-go Related Gene) are stabilized with the extracellular solution for 5 minutes. The cells are incubated for 5 minutes with the molecules from the weakest to the strongest concentration at 0.6% DMSO final.
The result is expressed in the form of an IC50 value in μM.

[2] = system: IL-17A secretion by CD4+ cells; assay: IL-17A secretion by CD4+ cells (HTRF); conditions: 96 h; human CD4+ cells activated with anti-CD3 and anti-CD28, 4 days of incubation; read-out: IC50 hCD4/IL17
Description: This model allows measurement of the effect of inhibitors on IL-17A secretion by CD4+ cells. […] The amount of IL-17a secreted is measured by the TR-FRET (kit HTRF® Human Interleukin 17A (Cisbio, #64H17PEC)) technology.
The cells are rapidly thawed, resuspended in their culture medium (RPMI inactivated 10% FCS) supplemented with soluble anti-CD28 antibodies and seeded (100 000 cells/well) in 96-well plates precoated with anti-CD3 antibodies. The cells are then treated with the ranges of inhibitors to be tested (from 1000 nM to 0.05 nM, 0.1% DMSO). […] The IC50 values are calculated from a 4-parameter logistic model using the XLFit software (IDBS).

[3] = target: ROR gamma ligand-binding domain (hRORg) (Homo sapiens (Human), UniProt P51449); assay: GAL4-RORγ transactivation (luciferase reporter, HG5LN HeLa line); conditions: 18 hours incubation
How it was run: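 HeLa-derived HG5LN cells stably expressing GAL4 DBD fused to human RORγ LBD with GAL4-driven luciferase reporter; inhibition of constitutive activity lowers luminescence.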

hERG, sequence (Q12809 whole entry): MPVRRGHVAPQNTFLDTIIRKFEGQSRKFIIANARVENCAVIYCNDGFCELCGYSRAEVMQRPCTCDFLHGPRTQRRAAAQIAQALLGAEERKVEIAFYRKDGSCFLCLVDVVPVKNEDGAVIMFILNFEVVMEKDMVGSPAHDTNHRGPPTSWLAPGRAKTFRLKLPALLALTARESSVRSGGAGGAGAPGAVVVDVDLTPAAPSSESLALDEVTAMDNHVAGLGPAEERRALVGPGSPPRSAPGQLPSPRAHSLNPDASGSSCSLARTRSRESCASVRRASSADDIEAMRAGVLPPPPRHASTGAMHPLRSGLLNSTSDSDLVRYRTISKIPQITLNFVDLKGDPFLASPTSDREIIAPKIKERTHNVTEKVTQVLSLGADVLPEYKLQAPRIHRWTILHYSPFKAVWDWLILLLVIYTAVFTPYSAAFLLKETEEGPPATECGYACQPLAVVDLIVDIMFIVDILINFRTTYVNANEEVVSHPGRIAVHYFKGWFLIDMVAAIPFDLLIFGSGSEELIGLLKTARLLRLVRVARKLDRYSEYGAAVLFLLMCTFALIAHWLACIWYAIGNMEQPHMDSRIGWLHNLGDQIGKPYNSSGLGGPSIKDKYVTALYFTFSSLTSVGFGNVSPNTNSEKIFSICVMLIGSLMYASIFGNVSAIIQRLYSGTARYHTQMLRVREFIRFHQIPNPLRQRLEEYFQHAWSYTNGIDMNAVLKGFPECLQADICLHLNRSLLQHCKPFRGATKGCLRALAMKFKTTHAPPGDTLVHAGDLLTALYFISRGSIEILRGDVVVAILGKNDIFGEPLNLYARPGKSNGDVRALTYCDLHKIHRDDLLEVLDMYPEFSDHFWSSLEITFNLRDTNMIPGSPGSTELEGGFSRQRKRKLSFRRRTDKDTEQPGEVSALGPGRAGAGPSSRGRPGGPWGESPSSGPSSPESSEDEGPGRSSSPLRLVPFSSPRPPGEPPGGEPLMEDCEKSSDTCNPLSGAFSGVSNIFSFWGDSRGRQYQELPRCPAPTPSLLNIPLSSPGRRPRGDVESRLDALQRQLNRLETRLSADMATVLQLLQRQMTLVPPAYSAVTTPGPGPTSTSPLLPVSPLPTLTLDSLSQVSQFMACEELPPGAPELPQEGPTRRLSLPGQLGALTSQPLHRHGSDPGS
ROR gamma ligand-binding domain (hRORg), sequence (P51449 269-508): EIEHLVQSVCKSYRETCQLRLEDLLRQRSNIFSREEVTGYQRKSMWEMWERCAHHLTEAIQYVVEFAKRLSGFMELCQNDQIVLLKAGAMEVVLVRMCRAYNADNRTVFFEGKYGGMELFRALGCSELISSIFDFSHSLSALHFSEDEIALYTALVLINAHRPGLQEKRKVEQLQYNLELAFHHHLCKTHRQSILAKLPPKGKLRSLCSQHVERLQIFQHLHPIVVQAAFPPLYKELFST

Row | SMILES | IC50 [1] [nM] | IC50 [2] [nM] | IC50 at 5 min ([1]; human) [nM] | IC50 [3] [nM]
1 | CCc1ccc(N(CC(C)C)S(=O)(=O)c2ccc(N(C)CC3CCOCC3)c(S(C)(=N)=O)c2)cc1 (stereo not shown) [compound 53, N-(4-ethylphenyl)-N-isobutyl-4-(methyl((tetrahydro-2H-pyran-4-yl)methyl)amino)-3-(S-methylsulfonimidoyl)benzenesulfonamide] | 11800 | < 100 | – | –
2 | CCc1ccc(N(CC(C)C)S(=O)(=O)c2ccc(OCC3CCSCC3)c(S(C)(=N)=O)c2)cc1 (stereo not shown) [compound 37] | – | – | 11800 | –
3 | CCc1ccc(N(CC(C)C)S(=O)(=O)c2ccc(OCC3CCOCC3)c(S(C)(=N)=O)c2)cc1 (racemic) [compound 26, N-(4-ethylphenyl)-N-isobutyl-3-methanesulfonoximino-4-(tetrahydropyran-4-ylmethoxy)benzenesulfonamide] | > 30000 | < 100 | – | –
4 | CCc1ccc(N(CC(C)C)S(=O)(=O)c2ccc(OCC3CCOCC3)c([S@](C)(=N)=O)c2)cc1 [compound 7, N-(4-ethylphenyl)-N-isobutyl-3-methanesulfoximino-4-(tetrahydropyran-4-ylmethoxy)benzenesulfonamide] | > 30000 | < 100 | – | –
5 | CCc1ccc(N(CC(C)C)S(=O)(=O)c2ccc(NCC3(F)CCOCC3)c(S(C)(=N)=O)c2)cc1 (stereo not shown) [compound 62, N-(4-ethylphenyl)-4-(((4-fluorotetrahydro-2H-pyran-4-yl)methyl)amino)-N-isobutyl-3-(S-methylsulfonimidoyl)benzenesulfonamide] | 16400 | < 100 | – | –
6 | CCc1ccc(N(CC(C)C)S(=O)(=O)c2ccc(OCC3CCOCC3)c([S@@](C)(=N)=O)c2)cc1 (single isomer, unassigned) [compound 8, N-(4-ethylphenyl)-N-isobutyl-3-methanesulfoximino-4-(tetrahydropyran-4-ylmethoxy)benzenesulfonamide] | > 30000 | < 100 | – | –
7 | CCc1ccc(N(CC(C)C)S(=O)(=O)c2ccc(N3CCSCC3)c(S(C)(=N)=O)c2)cc1 (stereo not shown) [compound 87, N-(4-ethylphenyl)-N-isobutyl-3-(S-methylsulfonimidoyl)-4-thiomorpholinobenzenesulfonamide] | – | < 100 | – | < 100
8 | CCc1ccc(N(CC(C)C)S(=O)(=O)c2ccc(NCC3(C)CCOCC3)c(S(C)(=N)=O)c2)cc1 (stereo not shown) [compound 55, N-(4-ethylphenyl)-N-isobutyl-3-(S-methylsulfonimidoyl)-4-(((4-methyltetrahydro-2H-pyran-4-yl)methyl)amino)benzenesulfonamide] | 14100 | < 100 | – | –
9 | Cc1ccc(N(CC(C)C)S(=O)(=O)c2ccc(OCC3CCOCC3)c(S(C)(=N)=O)c2)c(C)c1 (stereo not shown) [compound 142, N-(2,4-dimethylphenyl)-N-isobutyl-3-(S-methylsulfonimidoyl)-4-((tetrahydro-2H-pyran-4-yl)methoxy)benzenesulfonamide] | – | < 100 | – | < 100
10 | CCc1ccc(N(CC(C)C)S(=O)(=O)c2ccc(OCC3(F)CCOCC3)c(S(C)(=N)=O)c2)cc1 (stereo not shown) [compound 30, N-(4-ethylphenyl)-4-((4-fluorotetrahydro-2H-pyran-4-yl)methoxy)-N-isobutyl-3-(S-methylsulfonimidoyl)benzenesulfonamide] | – | < 100 | – | < 100
11 | CCc1ccc(N(CC(C)C)S(=O)(=O)c2ccc(N3CCOCC3)c(S(C)(=N)=O)c2)cc1 (stereo not shown) [compound 123, N-(4-ethylphenyl)-N-isobutyl-3-(S-methylsulfonimidoyl)-4-morpholinobenzenesulfonamide] | – | < 100 | – | < 100
12 | CCc1ccc(N(CC(C)C)S(=O)(=O)c2ccc(N3CCOC[C@H]3C)c(S(C)(=N)=O)c2)cc1 (stereo partly drawn) [compound 103, N-(4-ethylphenyl)-N-isobutyl-4-((R)-3-methylmorpholino)-3-(S-methylsulfonimidoyl)benzenesulfonamide] | – | > 1000 | – | > 1000
13 | CCc1ccc(N(CC(C)C)S(=O)(=O)c2ccc(N3CCC(O)CC3)c(S(C)(=N)=O)c2)cc1 (stereo not shown) [compound 128, N-(4-ethylphenyl)-4-(4-hydroxypiperidin-1-yl)-N-isobutyl-3-(S-methylsulfonimidoyl)benzenesulfonamide] | – | > 1000 | – | > 1000
14 | CCc1ccc(N(CC(C)C)S(=O)(=O)c2ccc(NCC3CSC3)c(S(C)(=N)=O)c2)cc1 (stereo not shown) [compound 99, N-(4-ethylphenyl)-N-isobutyl-3-(S-methylsulfonimidoyl)-4-((thietan-3-ylmethyl)amino)benzenesulfonamide] | – | < 100 | – | < 100
15 | CCc1ccc(N(CC(C)C)S(=O)(=O)c2ccc(OC[C@H]3[C@@H]4COC[C@@H]43)c(S(C)(=N)=O)c2)cc1 (stereo partly drawn) [compound 35, 4-(((1R,5S,6R)-3-oxabicyclo[3.1.0]hexan-6-yl)methoxy)-N-(4-ethylphenyl)-N-isobutyl-3-(S-methylsulfonimidoyl)benzenesulfonamide] | > 30000 | – | – | < 100
16 | CCc1ccc(N(CC(C)C)S(=O)(=O)c2ccc(N3CCC4(COC4)C3)c(S(C)(=N)=O)c2)cc1 (stereo not shown) [compound 112, N-(4-ethylphenyl)-N-isobutyl-3-(S-methylsulfonimidoyl)-4-(2-oxa-6-azaspiro[3.4]octan-6-yl)benzenesulfonamide] | – | < 100 | – | 100 to 1000
17 | CCc1ccc(N(CC(C)C)S(=O)(=O)c2ccc(NCC3CC(O)C3)c(S(C)(=N)=O)c2)cc1 (stereo not shown) [compound 61, N-(4-ethylphenyl)-4-(((3-hydroxycyclobutyl)methyl)amino)-N-isobutyl-3-(S-methylsulfonimidoyl)benzenesulfonamide] | 25700 | < 100 | – | < 100
